Active and inactive are the calls of the source. The calls are words filed in the database; no cut-off is given here.
Key:
[1] = Drug uptake in human HepG2 cells assessed as doxorubicin conjugates accumulation at 10 uM after 6 hrs by fluorescence assay; type: ADME, cell-based; details: hepg2, 6 h
[2] = Drug uptake in human HEK293 cells assessed as assessed as doxorubicin conjugates accumulation at 10 uM after 6 hrs by fluorescence assay; type: ADME, cell-based; details: hek293, 6 h
[3] = Drug localization in human HepG2 cell cytoplasm at assessed as doxorubicin conjugates accumulation 10 uM after 24 hrs by DAPI staining-based fluorescence microscopic analysis; type: ADME; details: hepg2, 24 h
HepG2 [4] = assay: Cytotoxicity against human HepG2 cells assessed as cell viability up to 70 uM after 2 hrs by MTS assay; type: functional, cell-based
[5] = Drug uptake in human HEK293 cells assessed as doxorubicin conjugates accumulation at 10 uM after 24 hrs by fluorescence assay; type: ADME, cell-based; details: hek293, 24 h
HepG2 [6] = assay: Cytotoxicity against human HepG2 cells assessed as reduction in cell viability at 100 umol after 48 hrs by MTS assay relative to control; type: functional
HepG2 [7] = assay: Cytostatic activity against human HepG2 cells assessed as cell viability at 0.02 to 70 uM after 48 hrs by MTS assay; type: functional, cell-based
[8] = Drug localization in human HepG2 cell nucleus assessed as doxorubicin conjugates accumulation at 10 uM after 24 hrs by DAPI staining-based fluorescence microscopic analysis; type: ADME; details: hepg2, 24 h

## COc1cccc2c1C(=O)c1c(O)c3c(c(O)c1C2=O)C[C@@](O)(C(=O)CO)C[C@@H]3O[C@H]1C[C@H](NC(=O)CCCc2cn([C@@H]3O[C@H](CO)[C@H](O)[C@H](O)[C@H]3NC(C)=O)nn2)[C@H](O)[C@H](C)O1
[1]
  Drug uptake: Active
[2]
  Drug uptake: Active
[3]
  Drug uptake: Active
HepG2 [4]
  Activity: inactive
[5]
  Drug uptake: Active
HepG2 [6]
  Activity: 20 - 30%

## C=CCO[C@@H]1O[C@H](Cn2cc(CCCC(=O)N[C@H]3C[C@H](O[C@H]4C[C@](O)(C(=O)CO)Cc5c(O)c6c(c(O)c54)C(=O)c4c(OC)cccc4C6=O)O[C@@H](C)[C@H]3O)nn2)[C@H](O)[C@H](O)[C@H]1NC(C)=O
[1]
  Drug uptake: Active
[2]
  Drug uptake: Active
[3]
  Drug uptake: Active
HepG2 [4]
  Activity: inactive
HepG2 [6]
  Activity: 20 - 30%

## COc1cccc2c1C(=O)c1c(O)c3c(c(O)c1C2=O)C[C@@](O)(C(=O)CO)C[C@@H]3O[C@H]1C[C@H](N)[C@H](O)[C@H](C)O1.Cl [DOXORUBICIN HYDROCHLORIDE]
[1]
  Drug uptake: Not Active
HepG2 [4]
  Activity: inactive
HepG2 [7]
  Activity: Active
[8]
  Drug uptake: Not Active

## COc1cccc2c1C(=O)c1c(O)c3c(c(O)c1C2=O)C[C@@](O)(C(=O)CO)C[C@@H]3O[C@H]1C[C@H](NC(=O)CCCc2cn(CCO[C@@H]3O[C@H](CO)[C@H](O)[C@H](O)[C@H]3NC(C)=O)nn2)[C@H](O)[C@H](C)O1
[1]
  Drug uptake: Active
[2]
  Drug uptake: Active
[3]
  Drug uptake: Active
HepG2 [4]
  Activity: inactive
HepG2 [6]
  Activity: 20 - 30%

From ChEMBL document CHEMBL4184088, “Synthesis and biological evaluation of novel doxorubicin-containing ASGP-R-targeted drug-conjugates” (Bioorg Med Chem Lett, 2018)
